Data from patent US12161630B2, “Methods to control infection using new generation small molecule growth inhibitors” (priority 2017, dated 2024).

Key:
C. clostridioforme = experiment: Activity spectrum at 200 μM, C. clostridioforme; assay type: cell-based, Clostridium clostridioforme
Procedure: (§1) SM activity spectrum: The 128 selected SMs were tested for antimicrobial effects on nine different serotypes frequently implicated in foodborne gastroenteritis outbreaks. Later in the study, the four best SMs were tested against twelve beneficial/commensal gut bacteria. Both screens were performed at 200 μM as described in the primary screening. Growth conditions for each strain are described in Table 1.

[1] = tested on: S. typhimurium WT internalized in HD11 cells; experiment: S. typhimurium intracellular survival in infected HD11 cells; assay type: cell-based; details: Salmonella enterica
Procedure: (§2) Effect of the four SMs on S. typhimurium intracellular survival in cells lines: The ability of four SMs to clear S. typhimurium WT […] was evaluated using three cell lines (Caco-2 cells, HD11, and THP-1 cells). The Salmonella intracellular survival as assessed as described (13). A multiplicity of infection “MOI” of 10 was used. Infected cells were treated with 1 μl of SMs (final concentration ranged between 100 μM and 6.25 μM) at 37° C. for 24 hrs in humidified, 5% CO2 incubator. Following incubation, cells were washed once with 150 μl of 1×PBS, lysed with 0.1% Triton-100X, serial ten-fold diluted in 1×PBS, and plated on agar plate. Plates were incubated at 37° C. for 24 hrs to determine the intracellular survival. Cells not infected and not treated, and cells infected and treated with 2% DMSO were used as controls.

C. jejuni 81-176 = experiment: Activity on avian pathogens at 200 μM, C. jejuni; assay type: cell-based, Campylobacter jejuni
Procedure: (§3) FIGS. 1(A-E). Selection of potent Salmonella growth inhibitors. FIG. 1A: High-throughput screening of 4182 SMs against S. typhimurium WT at 200 μM. Negative value: growth inhibition; Positive value: growth stimulation compared to S. typhimurium growth not treated. The black line represents growth inhibition caused by 2% DMSO. FIG. 1B: Activity of 19 S. typhimurium growth inhibitors against additional Salmonella serotypes. Light grey cells: total growth inhibition; dark grey cells: bacterial growth observed; black cells: not determined. FIG. 1C: Dose-response assays of the selected 19 SMs against S. typhimurium WT. […] The black line represents a cut off of nine serotypes killed per SM. FIG. 1E: Activity spectra of the selected four SMs at 200 μM each on several avian-pathogens (Campylobacter jejuni, Escherichia coli APEC, and Mycoplasma gallisepticum) and beneficial gut bacteria (remaining species). E. coli APEC refers to Avian Pathogenic E. coli and includes E. coli O1, O2, O8, O15, O18, O35, O78, O109, and O115. Light grey cells: cidal effect; dark grey cells: bacterial growth observed. Left side: phylogenetic tree based on NCBI taxonomic ID built with PhyloT software.
(§4) The selected four SMs were tested on twelve beneficial-commensal gut bacteria at 200 μM (FIG. 1E). […] These four SMs were also growth inhibitors of other avian pathogens at 200 μM (unpublished data, FIG. 1E). […]

chicken red blood cells = experiment: Hemolytic activity in chicken RBCs; assay type: cell-based; details: 200 μM, one-hour treatment
Procedure: Briefly, 200 μl of 10% sheep red blood cells (RBCs; LAMPIRE Biological Laboratories, Pipersville, PA) suspension was incubated with 1 μl of SMs (200 μM) for one hour at 37° C. in a sterile, non-treated, flat bottom plate 96-well. After incubation, the plate was centrifuged at 4000 rpm for 5 min at 4° C., then placed on ice for five min. 100 μL of the supernatant was transferred into a new sterile, treated, flat bottom 96-well plate, and the OD was measured at 540 nm. For this experiment, 2% DMSO (negative control) and 0.1% Triton-100X (positive control) were used. % Hemolysis=(OD540 SM−OD540 DMSO)/(OD540 1× triton−OD540 PBS)×100. Similar experiment was performed with chicken RBCs (OARDC, Ohio).

[2] = tested on: Avian Pathogenic E. coli (O1, O2, O8, O15, O18, O35, O78, O109, and O115); experiment: Activity on avian pathogens at 200 μM, Avian Pathogenic E. coli; assay type: cell-based, Escherichia coli
Procedure: as §3, §4

[3] = tested on: twelve beneficial-commensal gut bacteria; experiment: Activity spectrum on twelve beneficial-commensal gut bacteria at 200 μM; assay type: cell-based
Procedure: as §1

[4] = tested on: internalized Salmonella in Caco-2, HD11 and THP-1 cells; experiment: S. typhimurium clearance in infected cell lines, summary over the three cell lines; assay type: cell-based; details: over the three cell lines (Caco-2, HD11, THP-1)
Procedure: as §2

L. brevis = experiment: Activity spectrum at 200 μM, L. brevis; assay type: cell-based, Lactobacillus brevis
Procedure: as §1

B. thetaiolaomicron = experiment: Activity spectrum at 200 μM, B. thetaiotaomicron; assay type: cell-based
Procedure: as §1

[5] = tested on: PhoP regulon in S. typhimurium; details: four HTS, PubChem AID #1863, #1981, #2253, #2401; cited from earlier work
[6] = tested on: biofilm-protected S. typhimurium WT; experiment: MBEC-HTP assay on biofilm-protected S. typhimurium; assay type: cell-based, Salmonella enterica subsp. enterica serovar Typhimurium LT2; details: 18 hrs incubation, 0.2×MBC to 4×MBC
Procedure: Antimicrobial susceptibility testing on biofilm-protected S. typhimurium using the MBEC™-HTP assay: The antimicrobial efficacy of the four SMs was tested once the S. Typhimurium WT was protected by the […] biofilm matrix. The experiment was performed as described by the manufacturer (innovotech.ca/MBEC_HTPInstructions_Rev1.pdf). Briefly, 150 μl of an overnight suspension of S. typhimurium WT normalized at 0.05 OD600 in LB medium was transferred into each well of a sterile, non-treated, flat bottom 96-wells plate. The plate was covered using the lid containing the pegs (innovotech; 19111), sealed with parafilm, and incubated for 36 hrs at 37° C. […] The plate was incubated for 18 hrs at 37° C., 110 rpm in the dark. After incubation, the lid was transferred into a new 96-wells plate containing 200 μl of sterile water and sonicated for 60 min at room temperature (Aquasonic model 50HT, VWR). Then the supernatant was ten-fold serial diluted, plated in agar plate, and incubated at 37° C. for 36 hrs. The lowest SM concentration giving a complete clearance was considered as the minimum biofilm eradication concentration (MBEC).

B. longum = experiment: Activity spectrum at 200 μM, B. longum; assay type: cell-based, Bifidobacterium longum
Procedure: as §1

L. rhamnosus GG = experiment: Activity spectrum at 200 μM, L. rhamnosus GG; assay type: cell-based, Lactobacillus rhamnosus
Procedure: as §1

E. faecalis = experiment: Activity spectrum at 200 μM, E. faecalis; assay type: cell-based, Enterococcus faecalis
Procedure: as §1

B. adolescentis = experiment: Activity spectrum at 200 μM, B. adolescentis; assay type: cell-based, Bifidobacterium adolescentis
Procedure: as §1

CC1CCC(C(C)C)C(OC(=O)Cn2c[n+](CC(=O)OC3CC(C)CCC3C(C)C)c3ccccc32)C1.[Cl-] (stereo not drawn) [SM1, 1,3-bis{2-[(2-isopropyl-5-methylcyclohexyl)oxy]-2-oxoethyl}-1H-3,1-benzimidazol-3-ium chloride]
growth effect on C. clostridioforme (C. clostridioforme): no growth inhibition effect | IC50 ([1]; TYPHIMURIUM, HD11, read-out: IC 50% (μm), HD11 cells): < 6.25 µM | MBC ([1]; S. Typhimurium-infected HD11 cells, 24 hrs treatment): 12.5 µM | effect against C. jejuni 81-176 (C. jejuni 81-176): bactericidal effects | hemolytic activity in chicken RBCs (chicken red blood cells): > 50%

CCCCCCCCCCCCCCCC[n+]1ccn(CC#N)c1.[Cl-] [SM3, 1-(cyanomethyl)-3-hexadecyl-1H-imidazol-3-ium chloride]
effect against Avian Pathogenic E. coli [2]: lethal | activity on twelve beneficial-commensal gut bacteria [3]: killing all twelve strains tested | concentration clearing internalized Salmonella [4]: 50 µM

CCOc1cc(/C=N/N=C(N)N)ccc1OCc1ccc(Cl)cc1 [SM5, N″-{4-[(4-chlorobenzyl)oxy]-3-ethoxybenzylidene}carbonohydrazonic diamide]
growth effect on L. brevis (L. brevis): no effect | growth effect on B. thetaiolaomicron (B. thetaiolaomicron): no effect | inhibition of the PhoP regulon in S. typhimurium [5]: direct or indirect inhibitor | concentration killing biofilm-protected Salmonella [6]: 0.4 ×MBC | growth effect on B. longum (B. longum): no effect | growth effect on L. rhamnosus GG (L. rhamnosus GG): no effect | hemolytic activity in chicken RBCs (chicken red blood cells): lower than 1% | growth effect on E. faecalis (E. faecalis): no effect | growth effect on B. adolescentis (B. adolescentis): no effect

CCCCCCCCCCCCCCCCn1c[n+](C)c2ccccc21.[Br-] [SM4, 1-hexadecyl-3-methyl-1H-3,1-benzimidazol-3-ium bromide]
effect against Avian Pathogenic E. coli [2]: lethal | concentration killing biofilm-protected Salmonella [6]: 0.6 ×MBC | activity on twelve beneficial-commensal gut bacteria [3]: killing all twelve strains tested | concentration clearing internalized Salmonella [4]: 25 µM
